The source of these data is patent publication US5091528A, “6- or 7- (2-imino-2-imidazolidine)-1,4-benzoxazines as α adrenergic agents” (Allergan, Inc., priority 1990, dated 1992).

Structures can show the parent of a compound that is named as a salt.

In one data set the test system is intraocular pressure. Description: intraocular pressure (anti-glaucoma) assay, topical unilateral administration. In kind it is in vivo, monkey or New Zealand white rabbit. As for the experimental part: The anti-glaucoma activity (ability to maintain or reduce intraocular pressure) of the compounds of the present invention is established by the following assay pressure. This assay procedure is generally recognized in the art to provide pertinent information with respect to the anti-glaucomaactivity of the formulations assayed. Thus, each of the compounds of the invention to be tested was dissolved in distilled water at a concentration of 0.3% (W/V). Each of these solutions was administered topically and unilaterally to one eye of a drugnaive, unanesthetized monkey or New Zealand white rabbit in a single 50 micro liter drop. The contralateral eye received an equal volume of saline prior to determining the intraocular pressure after the mixture was administered. Also, approximately 10 micro liters of 0.5% (W/V) proparacaine (topical anesthetic) was applied to the corneas of each of the animals before determining intraocular pressure. As a control test, six (6) other drug-naive, unanesthetized animals were treated and tested as described above except that no compound of the invention was included in the solutions administered to the eyes.
The intraocular pressure was determined in both eyes of each animal both before and after the solutions were administered. Such intraocular pressure determinations were made in the conventional manner using conventional equipment.

Data set [1] relates to Alpha 1 adrenergic receptor. Description: Rabbit Aorta: Alpha 1 adrenergic receptor assay. The following applies: rabbit thoracic aorta rings, 37° C. The text has this:
The vasoconstrictive properties of the compounds of the present invention, i.e. their ability to reduce or control intraocular bleeding, are established by the rabbit aorta: alpha 1 adrenergic receptors in vivo assay procedure, which is recognized in the art to be indicative of the in vivo activity of the tested compounds as vaso-constrictors or as anti intraocular bleeding agents.
Thoracic aorta specimens were obtained form albino rabbits that were killed by CO2 inhalation. The aorta was cut into 3 mm rings. Tissues were placed in Krebs-Hensleit solution of the following composition (millimolar): NaCl 119; KCl 4.7; MgSO4 1.5, KH2 PO4 1.2; CaCl2 2.5; NaHCO3 25 and glucose 11.0. The solution also contained cocaine (0.1 millimolar) to block neuronal uptake and EDTA (30 micromolar) and ascorbic acid (5 micromolar) to prevent oxidation of the compound being tested. Tissues were hung in 10 ml organ baths and tension was measured via Grass FT03 force-displacement transducers. Resting tension was 2 g for the aorta. The solution was gassed with 95% O2 and 5% CO2 and maintained at 37° C. Tissues were allowed to equilibrate for 2 hours before stimulation and the cumulative addition of the compound to be tested (aryl oxazoline) was started. Tissue stimulation was performed using a square wave stimulator (WPI A310) Accupulser with A385 stimulus) at 0.1 Hz, 2 ms pulse width at 90 mA.

Data set [2] concerns the target T1, alpha-2 adrenergic receptor (Oryctolagus cuniculus, UniProt Q5ZQK3).
T1 construct: The prostatic ends of the vasa deferentia (2-3 cm lengths) were mounted between platinum ring electrodes; from tissue; host or cells: prostatic ends of vasa deferentia of New Zealand white rabbits
T1 sequence (Q5ZQK3 1-451): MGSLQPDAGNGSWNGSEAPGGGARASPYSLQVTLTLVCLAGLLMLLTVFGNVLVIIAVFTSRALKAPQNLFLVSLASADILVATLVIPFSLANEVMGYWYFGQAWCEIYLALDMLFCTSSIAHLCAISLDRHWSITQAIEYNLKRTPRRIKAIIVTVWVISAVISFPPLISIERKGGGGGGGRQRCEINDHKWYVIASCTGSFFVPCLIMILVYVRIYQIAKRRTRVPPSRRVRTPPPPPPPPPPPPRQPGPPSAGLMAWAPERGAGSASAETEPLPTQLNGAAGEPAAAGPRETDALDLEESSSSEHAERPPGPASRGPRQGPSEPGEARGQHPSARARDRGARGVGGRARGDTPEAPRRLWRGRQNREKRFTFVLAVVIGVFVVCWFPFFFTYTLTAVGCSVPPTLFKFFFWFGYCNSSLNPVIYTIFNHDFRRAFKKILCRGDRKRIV
Description: Rabbit Vas Deferens Assay (alpha-2 adrenergic receptor activity). The following applies: field-stimulated rabbit vas deferens, 35 degrees C, 4 minute contact time; read-out: EC50 (effective concentration required for a 50% reduction in response height). The arrangement: species or system New Zealand white rabbit. As for the experimental part:
(§1) The test procedure for alpha-2 adrenergic receptor activity of the compounds of the present invention is the rabbit vas deferens assay which is described as follows:
(§2) New Zealand white rabbits (2-3 kg) were killed by CO2 inhalation and the vasa deferentia removed. The prostatic ends of the vasa deferentia (2-3 cm lengths) were mounted between platinum ring electrodes in 9 ml organ baths and bathed in Krebs bicarbonate solution of the following composition (millimolar): NaCl 118.0; KCl 4.7; CaCl2 2.5; MgSO4 1.2; KH2 PO4 1.2; glucose 11.0; NaHCO3 25.0; which solution was maintained at 35 degrees C and bubbled with 95% O2 and 5% CO2. The initial tension of the vas deferens was 0.5 g. The tissues were left to equilibrate for 30 minutes before stimulation was started. […] Cumulative concentration-response curves were obtained for the compounds being tested with a 4 minute contact time at each concentration. The reduction in response height was measured and expressed as a percentage of the height of the response before the addition of the compounds. Concentration response curves for each of the compounds were plotted. The effective concentration required for a 50% reduction in response height, expressed as EC50 were obtained from these curves.

Data set [3] deals with alpha-2 adrenergic receptor. Described as above. The arrangement: species or system New Zealand white rabbit. The following applies: for Comment (α1/α2 selectivity): Rabbit Vas Deferens table. On the procedure: as §1, §2
Data set [4] can be described thus: storage stability of solid. Format: physicochemical. The following applies: stored in the dark at 0° C.
The test system of a further data set is alpha2 -Adrenoreceptor. The following applies: described by Chapleo et al.; cited from earlier work.
[5] abbreviates: Contralateral (Untreated) Eye, 0.3% (W/V) to the other eye.
Where [6] appears, read: Ipsilateral (Treated) Eye, 0.3% (W/V), single 50 micro liter drop.

As to `CN1C(=O)COc2cc(Br)c(N=C3NCCN3)cc21` [Example 31, 7-bromo-4-methyl-6-(2-imino-imidazolidine)-3-oxo-3,4-dihydro-(2H)-1,4-benzoxazine], the entries for the “Duration of IOP decrease” value with intraocular pressure (setting [5]) and with intraocular pressure (setting [6]) were 1 h and 1 to 6 h, respectively. Further, the “Maximum Difference in Intraocular Pressure After Solution Administration, % Decrease in IOP from Control” value turned out to be 6.8 ± 1.8% with intraocular pressure (setting [5]) and 14 ± 2.5% in the data set on intraocular pressure (setting [6]). Further, the values for the EC50 in data set [1] and in data set [2] were 2740 ± 1430 nM and 41.5 ± 24.4 nM, respectively. The “Comment (α1/α2 selectivity)” value in data set [3] is listed as “α2 Selective”.
With `CCCc1c(N=C2NCCN2)ccc2c1NC(=O)CO2` [Example 56, 5-Propyl-6-(2-imino-2-imidazolidine)-3-oxo-3,4-dihydro-(2H)-1,4-benzoxazine], the figures for the EC50 in data set [1] and in data set [2] were 1120 ± 94.1 nM and 18.1 ± 1.21 nM, respectively. Moreover, in data set [3], the “Comment (α1/α2 selectivity)” value was “α2 Selective”.
As for `O=S(=O)(O)C1=NCCN1` [Imidazoline-2-sulfonic acid], the “stability of solid on storage” value in data set [4] is “at least 6 months”.
In the case of `CCc1cc2c(cc1N=C1NCCN1)NC(=O)CO2` [Example 50, 7-Ethyl-6-(2-imino-2-imidazolidine)-3-oxo-3,4-dihydro-(2H)-1,4-benzoxazine], the EC50 in data set [1] was 940 ± 18.5 nM; in data set [2], 8.92 ± 3.11 nM. In addition, the “Comment (α1/α2 selectivity)” value in data set [3] is listed as “α2 Selective”.
For `Cc1cc2c(cc1N=C1NCCN1)NC(=O)CO2` [Example 39, 7-methyl-6(2-imino-2-imidazolidine)-3-oxo-3,4-dihydro-(2H)-1,4-benzoxazine] the same measures were 5690 ± 956 nM, 74.6 ± 43.6 nM and “α2 Selective”.
For `Brc1cc2c(cc1N=C1NCCN1)OCCN2` [Example 7, 6-bromo-7-(2-imino-2-imidazolidine)-3,4-dihydro-(2H)-1,4-benzoxazine], in that order: 39 ± 6.36 nM, greater than 10000 nM and “α1 Selective”.
On to `CN1C(=O)COc2cc(N=C3NCCN3)c(Br)cc21` [Example 22, 4-methyl-6-bromo-7-(2-imino-imidazolidine)-3-oxo-3,4-dihydro-2H-1,4-benzoxazinehydrobromide], for which the results for the “Duration of IOP decrease” value in the data set on intraocular pressure (setting [5]) and in the data set on intraocular pressure (setting [6]) were 1 h and 1 to 2 h, respectively. For the same compound, the figures for the “Maximum Difference in Intraocular Pressure After Solution Administration, % Decrease in IOP from Control” value in the data set on intraocular pressure (setting [5]) and in the data set with intraocular pressure (setting [6]) were 5.7 ± 2.0% and 11.5 ± 2.7%, respectively. Besides, the figures for the EC50 in data set [1] and in data set [2] were 1430 ± 891 nM and 105 ± 35.5 nM, respectively. In addition, the “Comment (α1/α2 selectivity)” value in data set [3] is given as “α2 Selective”.
On to `O=C1COc2cc(N=C3NCCN3)ccc2N1` [Example 3, 7-2(2-imino-2-imidazolidine)-3-oxo-3,4-dihydro-(2H)-1,4-benzoxazine], for which the alpha-2 agonist activity result in the data set with alpha2 -Adrenoreceptor was “partial alpha-2 agonists”.
Take `O=C1COc2cc(Br)c(N=C3NCCN3)c(Br)c2N1` [Example 14, 5,7-dibromo-6-(2-imino-2-imidazolidine)-3-oxo-3,4-dihydro-2H-1,4-benzoxazin]: the EC50 in data set [1] is greater than 100000 nM; in data set [2], 48.5 ± 20.6 nM. In addition, the “Comment (α1/α2 selectivity)” value in data set [3] is recorded as “α2 Selective”.
As for `O=C1COc2c(cc(Br)c(N=C3NCCN3)c2Br)N1` [Example 5, 6,8-dibromo-7-(2-imino-2-imidazolidine)-3-oxo-3,4-dihydro-(2H)-1,4-benzoxazine], the values for the EC50 in data set [1] and in data set [2] were 3.41 ± 0.5 nM and 0.59 ± 0.14 nM, respectively. Also, the “Comment (α1/α2 selectivity)” value in data set [3] was “Non-Selective”. Further, the “Comment (vasoconstrictor activity)” value in data set [3] (printed "Potent- Vasoconstrictor" on two lines) is on record as “Vasoconstrictor”.
For the compound `O=C1COc2ccc(N=C3NCCN3)cc2N1` [Example 12, 6-(2-imino-2-imidazlidine)-3-oxo-3,4-dihydro-(2H)-1,4-benzoxazine], the alpha-2 agonist activity entry with alpha2 -Adrenoreceptor is recorded as “partial alpha-2 agonists”.
With `O=C1COc2cc(N=C3NCCN3)c(Br)cc2N1` [Example 4, 6-Bromo-7-(2-imino-2-imidazolidine)-3-oxo-3,4-dihydro-(2H)-1,4-benzoxazine,hydrobromide], the EC50 in data set [1] worked out at 1120 ± 457 nM; in data set [2], 167 ± 56.1 nM. Besides, the “Comment (α1/α2 selectivity)” value in data set [3] is listed as “α2 Selective”.
